From patent US20210238162A1, “CHEMICAL COMPOUNDS” (GlaxoSmithKline Intellectual Property Development Limited, priority 2015, published 2021)
Where a name gives a salt, the structure may show the parent alone. Read-outs that look alike come from different tables or passages of the source.

Biological target: T1, haematopoietic prostaglandin D synthase (H-PGDS) (Homo sapiens, UniProt O60760)
T1 construct: Full length human H-PGDS cDNA (Invitrogen Ultimate ORF IOH13026) was amplified by PCR; made in house; host or cells: E. coli BL21 (DE3*), vector pET22b+
T1 sequence (O60760 whole entry): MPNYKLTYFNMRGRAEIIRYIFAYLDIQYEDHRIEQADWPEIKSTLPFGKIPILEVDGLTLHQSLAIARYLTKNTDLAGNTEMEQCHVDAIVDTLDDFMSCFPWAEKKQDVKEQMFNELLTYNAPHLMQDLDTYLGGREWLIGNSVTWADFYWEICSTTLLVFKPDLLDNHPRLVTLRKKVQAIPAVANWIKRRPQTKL
Assay: H-PGDS RapidFire High Throughput Mass Spectrometry Assay
Format: biochemical
How it was run: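 PGH2 (~10 μM burst) generated in situ from arachidonic acid by FLAG-tagged human COX-2 (Sf9-expressed), then converted to PGD2 by full-length human His-tagged H-PGDS from E. coli. PGD2 and PGF2α (substrate surrogate) quantified by RapidFire SPE-triple quadrupole MS; percent conversion calculated.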

[1] = H-PGDS RapidFire MS assay, mean pIC50, read-out: Potency Range (mean pIC50) (converted)
[2] = in at least one experimental run, read-out: H-PGDS pIC50 value (converted)

SMILES	IC50 [1]	IC50 [2]
CC(C)(O)[C@H]1CC[C@H](NC(=O)c2cnc3c4c(ccc3c2)CCO4)CC1 [Example 113, N-(trans-4-(2-Hydroxypropan-2-yl)cyclohexyl)-2,3-dihydrofuro[3,2-h]quinoline-7-carboxamide]	10 to 79.4 nM	–
COc1cc2ncc(C(=O)NC3CCN(c4nnnn4C)CC3)cc2cc1C#N [Example 114, 6-Cyano-7-methoxy-N-(1-(1-methyl-1H-tetrazol-5-yl)piperidin-4-yl)quinoline-3-carboxamide]	100 to 1000 nM	–
CC(C)Oc1ccc2cc(C(=O)NC3CCN(c4nnnn4C)CC3)cnc2c1 [Example 115, 7-Isopropoxy-N-(1-(1-methyl-1H-tetrazol-5-yl)piperidin-4-yl)quinoline-3-carboxamide]	100 to 1000 nM	–
CC(C)(O)[C@H]1CC[C@H](NC(=O)c2cnc3cc(OC(F)F)c(Cl)cc3c2)CC1 [Example 116, (6-Chloro-7-(difluoromethoxy)-N-(trans-4-(2-hydroxypropan-2-yl)cyclohexyl)quinoline-3-carboxamide, trifluoroacetate]	< 10 nM	2.51 nM
CC(C)(O)[C@H]1C[C@H](NC(=O)c2cnc3cc(OC(F)F)c(Cl)cc3c2)C1 [Example 118, 6-Chloro-7-(difluoromethoxy)-N-(trans-3-(2-hydroxypropan-2-yl)cyclobutyl)quinoline-3-carboxamide]	< 10 nM	10 nM
CC(C)N1CC[C@H](NC(=O)c2cnc3cc(OC(F)F)c(Cl)cc3c2)C1=O [Example 119, (S)-6-Chloro-7-(difluoromethoxy)-N-(1-isopropyl-2-oxopyrrolidin-3-yl)quinoline-3-carboxamide]	10 to 79.4 nM	–
O=C(N[C@H]1CCN(CC2CC2)C1=O)c1cnc2cc(OC(F)F)c(Cl)cc2c1 [Example 120, (S)-6-Chloro-N-(1-(cyclopropylmethyl)-2-oxopyrrolidin-3-yl)-7-(difluoromethoxy)quinoline-3-carboxamide]	10 to 79.4 nM	–
O=C(N[C@H]1CC[C@H](C2(O)CC2)CC1)c1cnc2cc(OC(F)F)c(Cl)cc2c1 [Example 121, 6-Chloro-7-(difluoromethoxy)-N-(trans-4-(1-hydroxycyclopropyl)cyclohexyl)quinoline-3-carboxamide]	< 10 nM	–
CC(C)(O)CO[C@H]1CC[C@H](NC(=O)c2cnc3cc(OC(F)F)c(Cl)cc3c2)CC1 [Example 122, 6-Chloro-7-(difluoromethoxy)-N-(trans-4-(2-hydroxy-2-methylpropoxy)cyclohexyl)quinoline-3-carboxamide]	< 10 nM	–
O=C(N[C@H]1CC[C@H](OCC2(O)CC2)CC1)c1cnc2cc(OC(F)F)c(Cl)cc2c1 [Example 123, 6-Chloro-7-(difluoromethoxy)-N-(trans-4-((1-hydroxycyclopropyl)methoxy)cyclohexyl)quinoline-3-carboxamide]	< 10 nM	–
CC(C)C(O)CO[C@H]1CC[C@H](NC(=O)c2cnc3cc(OC(F)F)c(Cl)cc3c2)CC1 (stereo partly drawn) [Example 127, 6-Chloro-7-(difluoromethoxy)-N-(trans-4-(2-hydroxy-3-methylbutoxy)cyclohexyl)quinoline-3-carboxamide]	< 10 nM	–
Cn1nc(C2CC2)cc1NC(=O)c1cnc2cc(OC(F)F)c(Cl)cc2c1 [Example 128, 6-Chloro-N-(3-cyclopropyl-1-methyl-1H-pyrazol-5-yl)-7-(difluoromethoxy)quinoline-3-carboxamide]	10 to 79.4 nM	–
C[C@@H](N[C@H]1CC[C@H](NC(=O)c2cnc3cc(OC(F)F)c(Cl)cc3c2)CC1)C(F)F [Example 129, 6-Chloro-7-(difluoromethoxy)-N-(trans-4-(((R)-1,1-difluoropropan-2-yl)amino)cyclohexyl)quinoline-3-carboxamide]	< 10 nM	–
C[C@H](N[C@H]1CC[C@H](NC(=O)c2cnc3cc(OC(F)F)c(Cl)cc3c2)CC1)C(F)F [Example 130, 6-Chloro-7-(difluoromethoxy)-N-(trans-4-(((S)-1,1-difluoropropan-2-yl)amino)cyclohexyl)quinoline-3-carboxamide]	< 10 nM	–
O=C(N[C@H]1CC[C@H](N[C@@H](CO)C(F)(F)F)CC1)c1cnc2cc(OC(F)F)c(Cl)cc2c1 [Example 131, 6-Chloro-7-(difluoromethoxy)-N-(trans-4-(((S)-1,1,1-trifluoro-3-hydroxypropan-2-yl)amino)cyclohexyl)quinoline-3-carboxamide]	< 10 nM	–
O=C(N[C@H]1CC[C@H](N2CC(F)C2)CC1)c1cnc2cc(OC(F)F)c(Cl)cc2c1 [Example 132, 6-Chloro-7-(difluoromethoxy)-N-(trans-4-(3-fluoroazetidin-1-yl)cyclohexyl)quinoline-3-carboxamide]	< 10 nM	–
O=C(N[C@H]1CC[C@H](N2CC(O)(C(F)(F)F)C2)CC1)c1cnc2cc(OC(F)F)c(Cl)cc2c1 [Example 134, 6-Chloro-7-(difluoromethoxy)-N-(trans-4-(3-hydroxy-3-(trifluoromethyl)azetidin-1-yl)cyclohexyl)quinoline-3-carboxamide]	< 10 nM	–

SMILES	IC50 [1]	IC50 [2]
O=C(N[C@H]1CC[C@H](N[C@H](CO)C(F)(F)F)CC1)c1cnc2cc(OC(F)F)c(Cl)cc2c1 [Example 135, 6-Chloro-7-(difluoromethoxy)-N-(trans-4-(((R)-1,1,1-trifluoro-3-hydroxypropan-2-yl)amino)cyclohexyl)quinoline-3-carboxamide]	< 10 nM	–
NC(=O)CO[C@H]1CC[C@H](NC(=O)c2cnc3cc(OC(F)F)c(Cl)cc3c2)CC1 [Example 136, N-(trans-4-(2-Amino-2-oxoethoxy)cyclohexyl)-6-chloro-7-(difluoromethoxy)quinoline-3-carboxamide]	< 10 nM	–
C[C@]1(O)C[C@H](NC(=O)c2cnc3cc(OC(F)F)c(Cl)cc3c2)C1 [Example 137, 6-Chloro-7-(difluoromethoxy)-N-((1r,3r)-3-hydroxy-3-methylcyclobutyl)quinoline-3-carboxamide]	10 to 79.4 nM	–
C[C@]1(O)C[C@@H](NC(=O)c2cnc3cc(OC(F)F)c(Cl)cc3c2)C1 [Example 138, 6-Chloro-7-(difluoromethoxy)-N-((1s,3s)-3-hydroxy-3-methylcyclobutyl)quinoline-3-carboxamide]	10 to 79.4 nM	20 nM
CS(=O)(=O)CCO[C@H]1CC[C@H](NC(=O)c2cnc3cc(OC(F)F)c(Cl)cc3c2)CC1 [Example 139, 6-Chloro-7-(difluoromethoxy)-N-(trans-4-(2-(methylsulfonyl)ethoxy)cyclohexyl)quinoline-3-carboxamide]	< 10 nM	–
O=C(N[C@H]1C[C@H](O)C1)c1cnc2cc(OC(F)F)c(Cl)cc2c1 [Example 140, 6-Chloro-7-(difluoromethoxy)-N-(trans-3-hydroxycyclobutyl)quinoline-3-carboxamide]	10 to 79.4 nM	–
NS(=O)(=O)O[C@H]1CC[C@H](NC(=O)c2cnc3cc(OC(F)F)c(Cl)cc3c2)CC1 [Example 141, trans-4-(6-Chloro-7-(difluoromethoxy)quinoline-3-carboxamido)cyclohexyl sulfamate]	< 10 nM	–
O=C1CC(NC(=O)c2cnc3cc(OC(F)F)c(Cl)cc3c2)C1 [Example 142, 6-Chloro-7-(difluoromethoxy)-N-(3-oxocyclobutyl)quinoline-3-carboxamide]	10 to 79.4 nM	39.8 nM
C[C@]1(O)CC[C@H](NC(=O)c2cnc3cc(OC(F)F)c(Cl)cc3c2)CC1 [Example 143, 6-Chloro-7-(difluoromethoxy)-N-((1r,4r)-4-hydroxy-4-methylcyclohexyl)quinoline-3-carboxamide]	< 10 nM	–
C[C@@H]1CNC(=O)[C@H]1NC(=O)c1cnc2cc(OC(F)F)c(Cl)cc2c1 [Example 144, 6-Chloro-7-(difluoromethoxy)-N-((3S,4R)-4-methy-2-oxopyrrolidin-3-yl)quinoline-3-carboxamide]	< 10 nM	–
CC1(O)CCC(NC(=O)c2cnc3cc(OC(F)F)c(Cl)cc3c2)C1 (stereo not drawn) [Example 145, 6-Chloro-7-(difluoromethoxy)-N-(3-hydroxy-3-methylcyclopentyl)quinoline-3-carboxamide]	10 to 79.4 nM	–
C[C@]1(O)CC[C@@H](NC(=O)c2cnc3cc(OC(F)F)c(Cl)cc3c2)CC1 [Example 147, 6-Chloro-7-(difluoromethoxy)-N-((1s,4s)-4-hydroxy-4-methylcyclohexyl)quinoline-3-carboxamide]	10 to 79.4 nM	–
O=C(NC1CCOCC1)c1cnc2cc(OC(F)F)c(Cl)cc2c1 [Example 148, 6-Chloro-7-(difluoromethoxy)-N-(tetrahydro-2H-pyran-4-yl)quinoline-3-carboxamide]	10 to 79.4 nM	–
O=C(NC1CCCOC1)c1cnc2cc(OC(F)F)c(Cl)cc2c1 (stereo not drawn) [Example 149, 6-Chloro-7-(difluoromethoxy)-N-(tetrahydro-2H-pyran-3-yl)quinoline-3-carboxamide]	10 to 79.4 nM	–
CC1(C)CC(NC(=O)c2cnc3cc(OC(F)F)c(Cl)cc3c2)CCO1 (stereo not drawn) [Example 150, 6-Chloro-7-(difluoromethoxy)-N-(2,2-dimethyltetrahydro-2H-pyran-4-yl)quinoline-3-carboxamide]	10 to 79.4 nM	39.8 nM
CC(C)(O)[C@H]1CC[C@H](NC(=O)c2cnc3cc(C4CC4(F)F)c(F)cc3c2)CC1 (stereo partly drawn) [Example 151, 7-(2,2-Difluorocyclopropyl)-6-fluoro-N-(trans-4-(2-hydroxypropan-2-yl)cyclohexyl)quinoline-3-carboxamide]	10 to 79.4 nM	–
CC(C)(O)[C@H]1CC[C@H](NC(=O)c2cnc3cc(OC(F)F)c(Br)cc3c2)CC1 [Example 152, 6-Bromo-7-(difluoromethoxy)-N-(trans-4-(2-hydroxypropan-2-yl)cyclohexyl)quinoline-3-carboxamide]	< 10 nM	–
